The values that follow come from patent publication US20090288227A1, “Improvements in or Relating to Starch Storage in Plants” (University of Durham, priority 2006, published 2009).

Marks after values point to notes of the source that are not given here.

Holding throughout (type): in vivo, Arabidopsis thaliana
For assay [1], the system named is LEC1 transcript. The experiment in a line: Semi-quantitative RT-PCR of LEC1 transcript in treated germinating seedlings. The conditions noted are these: tnp and pls control seedlings, RNA at 1-2 days post-germination. As to the method: To investigate the mechanism by which these compounds work, germinating seedlings were treated with each of the compounds, as well as with gibberellic acid (which has no effect on penetrance), and RNA was extracted at 1-2 days post-germination. […] Therefore, the effect of these compounds on penetrance is not mediated by alterations in LEC1 transcript levels, although post-transcriptional or translational effects cannot be excluded.

Assay [2] concerns tnp seedlings. In words: Penetrance of the tnp phenotype in seedlings germinated and grown on medium containing the compound. As to conditions: for effect on penetrance of the tnp phenotype: tnp seed germinated and grown in presence of the compound, result in words. As for the experimental part:
In order to establish whether the incomplete penetrance was due to methylation-dependent gene silencing, individual T3 sibling lines were germinated in the presence of 100 μM 5-azacytidine, a methylation inhibitor (Jones and Taylor, 1980 Cell 20, 85-93). […]
The tnp mutant phenotype is similar to that of the pkl mutant, which is characterised by the development of swollen and greenish roots that accumulate triacylglycerols and protein bodies (Ogas et al, 1997 Science 277, 91-94; Ogas et al, 1999 Proc. Natl. Acad. Sci. USA 96, 13839-13844). The penetrance of the pkl mutant phenotype is also variable and is affected by gibberellic acid and the gibberellin biosynthesis inhibitor, uniconazole-P. In order to determine whether growth factors have an effect on the penetrance of the tnp phenotype, the tnp seed was germinated and grown in the presence of a number of compounds (see Table 2).
Given the large quantities of starch stored in tnp, the effect of sugars on penetrance was examined. […] Furthermore, the effect of 1% glucose or fructose was not as potent as the effect obtained from sucrose alone. […] The effect of sugars on the penetrance of tnp was not due to an osmotic effect, since mannitol was ineffective at inducing penetrance in the absence of sugar (data not shown).

The test system of assay [3] is FUS3 transcript. The experiment in a line: Semi-quantitative RT-PCR of FUS3 transcript in treated tnp seedlings. The conditions noted are these: tnp seedlings at 1-2 days post-germination. From the text:
(§1) Alternatively, it is possible that these compounds may act by changing the expression of other key embryonic regulators to alter penetrance. FUS3 and LEC2 play key roles in embryogenesis and the transition to germination (Luerben et al, 1998 Plant J. 15, 755-764; Stone et al, 2001 Proc. Natl. Acad. Sci. USA 98, 11806-11811; Kroj et al, 2003 Development 130, 6065-6073). Semi-quantitative RT-PCR was used to determine whether the transcript levels in these genes were affected in tnp seedlings at 1-2 days post-germination in response to treatment with these compounds (see FIG. 10b).

Assay [4] concerns LEC2 transcripts. In words: Semi-quantitative RT-PCR of LEC2 transcript in treated tnp seedlings. The conditions noted are these: tnp seedlings at 1-2 days post-germination.
Text: as §1

Setting [5] is: Table 2 second series (1/2MS10 control 47.8), 10 nM.
The mark [6] stands for this setting: Table 2 second series (1/2MS10 control 47.8), 100 nM.
[7] abbreviates: Table 2 first series (1/2 MS10 control 32.8), 10 nM.
The mark [8] stands for this setting: Table 2 second series (1/2MS10 control 47.8), 1 μM.
[9] abbreviates: Table 2 first series (1/2 MS10 control 32.8), 10 uM.

For the molecule `CC(C)(C)[C@@H](O)[C@@H](Cc1ccc(Cl)cc1)n1cncn1` (racemic) [Paclobutrazol, paclobutrazol], the LEC1 transcript levels entry in assay [1] is on record as “unaltered”. Besides, the “% tnp” value in assay [2] (setting [5]) is reported as 84.7%; in assay [2] (setting [6]) it was 72.3* %. Further, the “effect on penetrance of the tnp phenotype” value (shortened to “effect on penetrance”) in assay [2] is “increased”. Besides, in assay [3], the FUS3 transcript levels entry is given as “did not have a significant effect”. For the same molecule, in assay [4], the “levels of LEC2 transcripts” value is listed as “no effect”.
With `O=C(O)COc1ccc(Cl)cc1Cl` [2,4-D, 2,4-dichlorophenoxyacetic acid], the “% tnp” value came out at 2% in assay [2] (0% suc. + 10 nm 2,4-D); 85.1% in assay [2] (1% suc. + 10 nm 2,4-D); 92.3% in assay [2] (2% suc. + 10 nm 2,4-D); 84.1% in assay [2] (3% suc. + 10 nm 2,4-D); 68.9% in assay [2] (4% suc. + 10 nm 2,4-D); 82.4% in assay [2] (5% suc. + 10 nm 2,4-D). Further, the “% tnp” value amounted to 66.0% in assay [2] (6% suc. + 10 nm 2,4-D); 78.1% in assay [2] (setting [7]); 82.1% in assay [2] (setting [5]); 95.3% in assay [2] (setting [6]); 98.2% in assay [2] (setting [8]). Also, the “tnp penetrance compared with sucrose alone” value in assay [2] (addition of 10 nM 2,4-D to the medium, even in absence of sucrose) is “greater penetrance”. In addition, the “penetrance of the tnp phenotype” value in assay [2] (concentration of 1 μM) is on record as approximately 100%. Further, in assay [2] (medium containing 20% sucrose and 25 nM 2,4-D, no effect on growth), the penetrance of tnp entry was “highest penetrance”. The “effect on penetrance” value in assay [2] is on record as “positive effect”. Besides, the FUS3 transcript levels entry in assay [3] is “increase”. In addition, the “levels of LEC2 transcripts” value in assay [4] is recorded as “significantly reduce”.
`Nc1ncn([C@@H]2O[C@H](CO)[C@@H](O)[C@H]2O)c(=O)n1` [5-AZA-C, 5-azacytidine]: the “% tnp” value is given as 62% in assay [2] (T3 Line 1, 100 μm 5-AZA-C, 1/2MS10 control 28); 7.4% in assay [2] (T3 Line 7, 100 μM 5-AZA-C, 1/2MS10 control 0); 48% in assay [2] (T3 Line 21, 100 μM 5-AZA-C, 1/2MS10 control 41). Besides, the “penetrance of the tnp phenotype compared with control levels” value in assay [2] (T3 sibling lines germinated in presence of 100 μM, highly variable between lines) is “increase in the penetrance”.
Regarding `CC1=CC(=O)CC(C)(C)[C@@]1(O)/C=C/C(C)=C\C(=O)O` [ABA, abscisic acid], in assay [2], the “effect on penetrance” value is given as “not found to have an effect”.
For the molecule `NC1(C(=O)O)CC1` [ACC, 1-aminocyclopropane-1-carboxylate], the “% tnp” value in assay [2] (Table 2 first series (1/2 MS10 control 32.8), 100 pM) stood at 29.3%. Further, in assay [2], the “effect on penetrance” value was “little effect”.
Take `c1ccc(CNc2ncnc3nc[nH]c23)cc1` [BA, N(6)-benzyladenine]: the “% tnp” value in assay [2] (Table 2 first series (1/2 MS10 control 32.8), 100 nM) stood at 9.9%; in assay [2] (setting [5]) it was 55%; in assay [2] (setting [6]) it was 35.6%; in assay [2] (setting [8]), 5%. Also, the “effect on penetrance” value in assay [2] is reported as “markedly suppressed”. Further, in assay [3], the FUS3 transcript levels entry is reported as “reduction”. The “levels of LEC2 transcripts” value in assay [4] was “significantly reduce”.
Regarding `C=C1C[C@]23C[C@@]1(O)CC[C@H]2[C@@]12C=C[C@H](O)[C@@](C)(C(=O)O1)[C@H]2[C@@H]3C(=O)O` [GA, gibberellic acid], the LEC1 transcript levels result in assay [1] is “unaltered”. The “effect on the positive effect of paclobutrazol on tnp penetrance” value in assay [2] (10 nM paclobutrazol and 10 μM gibberellic acid together, data not shown) is reported as “partially suppressed”. Besides, the “% tnp” value in assay [2] (setting [9]) was 37.3%; in assay [2] (setting [5]) it was 42.1%; in assay [2] (setting [6]), 52%; in assay [2] (setting [8]), 58.4%; in assay [2] (Table 2 second series (1/2MS10 control 47.8), 10 μM), 45.4%. Besides, in assay [2], the “effect on penetrance” value is recorded as “weakly positive effect”. Also, the FUS3 transcript levels result in assay [3] is “did not have a significant effect”. The “levels of LEC2 transcripts” value in assay [4] is reported as “significantly reduce”.
Take `O=C(O)Cc1c[nH]c2ccccc12` [IAA, indole-3-acetic acid]: the “% tnp” value in assay [2] (Table 2 first series (1/2 MS10 control 32.8), 50 nM) was 69.1%. In addition, the “effect on penetrance” value in assay [2] was “positive effect”.
Regarding `O=C(O)Cc1cccc2ccccc12` [NAA, naphthaleneacetic acid], the “% tnp” value in assay [2] (setting [7]) was found to be 42.8%.
For the molecule `O=C(O)COc1cccc2ccccc12` [NOA, naphthoxyacetic acid], in assay [2] (setting [9]), the “% tnp” value is 58.8%. Also, the “effect on penetrance” value in assay [2] is given as “positive effect”.
As to `O=C(O)c1ccccc1C(=O)Nc1cccc2ccccc12` [NPA, 1-N-naphthylphthalamic acid], the “% tnp” value in assay [2] (setting [9]) amounted to 55.4%. Besides, the “effect on penetrance” value in assay [2] is “positive effect”.
As to `O=C(CO)[C@@H](O)[C@H](O)[C@H](O)CO` [fructose], the “effect on tnp penetrance compared with sucrose alone” value in assay [2] (1% sugar, data not shown) was “not as potent”.
Consider `OC[C@@H](O)[C@@H](O)[C@H](O)[C@H](O)CO` [mannitol], for which, in assay [2] (osmotic control, data not shown), the “inducing tnp penetrance in the absence of sugar” value is reported as “ineffective”.
With `OC[C@H]1O[C@@](CO)(O[C@H]2O[C@H](CO)[C@@H](O)[C@H](O)[C@H]2O)[C@@H](O)[C@@H]1O` [suc., sucrose], the “% tnp” value in assay [2] (1% suc. in medium) amounted to 60.5%; in assay [2] (2% suc. in medium), 65.4%; in assay [2] (3% suc. in medium), 58.4%; in assay [2] (4% suc. in medium), 52.4%; in assay [2] (5% suc. in medium), 54.1%; in assay [2] (6% suc. in medium), 42.8%. The “level of tnp penetrance over sucrose concentrations” value in assay [2] (concentration of 2% sucrose) is listed as “highest level of penetrance”.
